The nature of the series: Human HepG2 cell viability assay in 384 well format. On the set-up: dose 125 nL, time 70.5 hour; concentration not given beside the values. Type of series: toxicity, cell-based. The following applies: HepG2 cells, read-out: Inhibition.
Regarding `CCS(=O)(=O)NCCNCc1cc(F)ccc1Br`, the cytotoxicity at 70.5 h came to 14.4%.

`Cc1nc(-c2cccc(C(=O)N(C)CC(C)O)c2)cs1` (centres undefined): the cytotoxicity at 70.5 h amounted to 0.422%.

For `CCCNC(=O)C1CCCN(Cc2ccc(-n3cncn3)c(C)c2)C1` (centres undefined), the cytotoxicity at 70.5 h was -1.68%.

With `COc1ccc(C(C)Nc2ncc(C(N)=O)cc2Cl)cc1F` (centres undefined), the cytotoxicity at 70.5 h was -10.7%.

Turning to `Cc1nn2c(nc1=O)-c1ccccc1NC2C(=O)O` (centres undefined), the cytotoxicity at 70.5 h was -9.44%.

`O=C(CC1CCCO1)Nc1ccc2c(ccn2CCN2CCOCC2)c1` (centres undefined): the cytotoxicity at 70.5 h is -8.05%.

Turning to `CN(Cc1ccccc1O)C(=O)Nc1cc(F)cc(N2CCCC2)c1`, the cytotoxicity at 70.5 h is -7.37%.

Consider `O=C(Cc1ccccc1O)Nc1ccc(N2CCCC2)nc1`, for which the cytotoxicity at 70.5 h was -10.3%.

As to `Cc1cc(CS(=O)(=O)NCC2CCCCC2)on1`, the cytotoxicity at 70.5 h is 0.508%.

On to `COCCS(=O)(=O)NCC(C)c1cccc(C)c1` (centres undefined), for which the cytotoxicity at 70.5 h is -3.93%.

On to `CN(Cc1cnccn1)C(=O)Nc1cc(F)cc(N2CCCC2)c1`, for which the cytotoxicity at 70.5 h was -5.64%.

With `Cc1cc(C(=O)NCC(=O)NC(c2ncccc2C)C(C)C)c(C)o1` (centres undefined), the cytotoxicity at 70.5 h is 3.7%.

`CN1CCc2c(NC(=O)NCc3ccccc3Cl)cccc21`: the cytotoxicity at 70.5 h is -1.74%.

On to `Cc1cc(N2CCC(NC(=O)CCc3cnn(C)c3)CC2)nc(C)n1`, for which the cytotoxicity at 70.5 h was -4.77%.

As for `C[C@@H]1CN(C(=O)c2ccc(Br)cc2F)CC(C(N)=O)O1` (some centres undefined), the cytotoxicity at 70.5 h is -4.88%.

With `COc1cc(C)c(NC(=O)NCCn2cccc2)cc1OC`, the cytotoxicity at 70.5 h was 10.3%.

Take `Cc1cccc(NS(=O)(=O)c2cnn(C)c2)c1C#N`: the cytotoxicity at 70.5 h is -12.8%.

For `Cc1c(CNC(=O)Nc2cccc3c2CCN3C)cnn1C`, the cytotoxicity at 70.5 h is -3.95%.

In the case of `N#Cc1ccc(S(=O)(=O)Nc2ccccc2C#N)cn1`, the cytotoxicity at 70.5 h is -6%.

As for `COCCCS(=O)(=O)N1CCN(C(=O)CO)CC1`, the cytotoxicity at 70.5 h was -0.333%.

Regarding `CC(C)OCCC(=O)N(C)c1ccc(F)c(Cl)c1`, the cytotoxicity at 70.5 h is -4.66%.

For the compound `CCn1cc(C2CCN(Cc3ccnc(N(C)C)c3)CC2)cn1`, the cytotoxicity at 70.5 h was -4.12%.

In the case of `c1csc(-c2noc(CC3CCCO3)n2)c1` (centres undefined), the cytotoxicity at 70.5 h was found to be 6.86%.

For `CN(C)S(=O)(=O)c1ccc(CNc2ccc(Cl)cn2)cc1`, the cytotoxicity at 70.5 h was determined as 0.742%.

`CCCn1ccc2cc(NC(=O)CC3CCCO3)ccc21` (centres undefined): the cytotoxicity at 70.5 h is -5.13%.

On to `CC(C)C(=O)N1CCN(CC(O)c2cc(Cl)ccc2Cl)CC1` (centres undefined), for which the cytotoxicity at 70.5 h is -7.34%.

For `OC(CN1CCOCC1)c1cc(Cl)ccc1Cl` (centres undefined), the cytotoxicity at 70.5 h amounted to 9.36%.

For `CN1CCCN(C(=O)c2ccn3ccnc3c2)CC1`, the cytotoxicity at 70.5 h was determined as 6.21%.

As to `O=C(c1ccncc1)N1CCCC1c1cccc(Br)c1` (centres undefined), the cytotoxicity at 70.5 h worked out at 21.6%.

Consider `O=C(c1ccnc(NC2CC2)c1)N1CCCC1c1cccc(Br)c1` (centres undefined), for which the cytotoxicity at 70.5 h is -6.56%.

Take `CCc1cccc(OCC(=O)NC(C)c2nnc3n2CCC3)c1` (centres undefined): the cytotoxicity at 70.5 h was -3.83%.

Turning to `Cc1cccc(C)c1OCC(=O)NC(C)c1nnc2n1CCC2` (centres undefined), the cytotoxicity at 70.5 h was -7.81%.

As for `CCN(C(=O)CCc1ccc2c(c1)OCO2)C1CC(=O)NC1=O` (centres undefined), the cytotoxicity at 70.5 h was found to be 6.1%.

As for `CC(NC(=O)COc1ccccc1Cl)c1nnc2n1CCC2` (centres undefined), the cytotoxicity at 70.5 h was -6.92%.

`CN(C)C(=O)C1CSCN1C(=O)CCc1ccco1` (centres undefined): the cytotoxicity at 70.5 h is -8.81%.

With `COCCNC(=O)N1CCN(C(=O)Cc2ccccc2F)CC1`, the cytotoxicity at 70.5 h was -8.11%.

For `CC(C)c1nnc2n1CCN(Cc1nc3c(F)cccc3[nH]1)C2`, the cytotoxicity at 70.5 h is -5.06%.

Regarding `CN(CCc1cccs1)C(=O)Nc1cccc(S(C)(=O)=O)c1`, the cytotoxicity at 70.5 h was -2.36%.

On to `COCC(C)(NC(=O)c1cc(Cl)c(-n2cccc2)cc1OC)C(N)=O` (centres undefined), for which the cytotoxicity at 70.5 h was -2.57%.

Regarding `Fc1cccc2[nH]c(CN3CCn4c(nnc4C4CC4)C3)nc12`, the cytotoxicity at 70.5 h worked out at 1.58%.

With `Cc1nc(S(=O)(=O)N2CCSCC2)cn1C`, the cytotoxicity at 70.5 h was -2.15%.

In the case of `Cn1cnc(S(=O)(=O)N2CCSC3(CCCCC3)C2)c1`, the cytotoxicity at 70.5 h was found to be 4.34%.

Turning to `O=C(c1c(O)cnc2ccccc12)N1CCN(CC(F)F)CC1`, the cytotoxicity at 70.5 h was -3.97%.

For the compound `CN(C)C(=O)N1CCN(C(=O)c2ccn3cncc3c2)CC1`, the cytotoxicity at 70.5 h came out at 0.173%.

As for `CCC(CC)S(=O)(=O)NC(=O)c1ccc2c(c1)ncn2C`, the cytotoxicity at 70.5 h was -0.423%.

As for `COCCNC(=O)N1CC(Cc2ccccc2F)C1`, the cytotoxicity at 70.5 h is -4.03%.

As to `COc1ccc(C)cc1C(C)NCc1cnnn1C` (centres undefined), the cytotoxicity at 70.5 h was -1.22%.

Turning to `COc1ccc(C)cc1C(C)NCc1cccn1C` (centres undefined), the cytotoxicity at 70.5 h is -0.611%.

On to `CC(NCc1ccsc1)c1ccc(OCc2nccn2C)cc1` (centres undefined), for which the cytotoxicity at 70.5 h is -3.28%.

Turning to `CC(NCc1cnn(C)c1)c1ccc(OCc2nccn2C)cc1` (centres undefined), the cytotoxicity at 70.5 h is -2.06%.

Take `CCn1cc(CNC2CCN(c3cccc(Cl)c3)C2)cn1` (centres undefined): the cytotoxicity at 70.5 h was -3.2%.

As for `Cc1cccc(CCC(=O)Nc2cccnc2N2CCC(O)CC2)c1`, the cytotoxicity at 70.5 h is 1%.

Turning to `Cc1cnn(CCC(=O)Nc2cccnc2N2CCC(CO)CC2)c1`, the cytotoxicity at 70.5 h was -1.8%.

For `Cc1ccc(C(=O)Nc2ccc(N3CCCC3)cn2)cc1C`, the cytotoxicity at 70.5 h is 0.417%.

`CCNC(=O)NC(=O)CN1CCOC(c2ccc(Br)cc2)C1` (centres undefined): the cytotoxicity at 70.5 h was -3.93%.

In the case of `O=C(CCN1CCC(c2cc3ccccc3[nH]2)CC1)N1CCOCC1`, the cytotoxicity at 70.5 h was -1.25%.

`CN(CC(=O)NCC(C)(C)c1ccc2c(c1)OCO2)c1cnccn1`: the cytotoxicity at 70.5 h is -12.3%.

For the compound `COCC(=O)N(C)Cc1ccc(OCc2cccs2)cc1`, the cytotoxicity at 70.5 h is -6.51%.

For the compound `Cn1cc(C(=O)N2CCO[C@@H]3CN(C4CCC4)C[C@@H]3C2)cn1`, the cytotoxicity at 70.5 h was -3.32%.

In the case of `CS(=O)(=O)NC1CCc2[nH]c(=O)ccc2C1` (centres undefined), the cytotoxicity at 70.5 h was -4.24%.

Consider `CO[C@H]1CC[C@H]2[C@H]1OCCN2C(=O)CC1=CCCCC1`, for which the cytotoxicity at 70.5 h is -2.24%.

Regarding `CCO[C@@H]1CC[C@H]2[C@H]1OCCN2C(=O)CC1=CCCCC1`, the cytotoxicity at 70.5 h was -2.71%.

Turning to `Cc1ncccc1NC(=O)[C@@H]1CCO[C@@H]2CCN(c3ccncn3)C[C@H]21`, the cytotoxicity at 70.5 h was -6.04%.

`CC(=O)N1CC[C@H]2OCC[C@@H](C(=O)Nc3cccnc3C)[C@H]2C1`: the cytotoxicity at 70.5 h is -3.55%.

`O=C(c1cccnc1)N1CCO[C@@H]2CNC[C@@H]21`: the cytotoxicity at 70.5 h was -4.67%.

As for `CCOCc1nn(C)c2c1CN(CCO)CC2`, the cytotoxicity at 70.5 h was -6.16%.

For the compound `CN1CCCN(C(=O)c2nc3c(o2)CN(S(C)(=O)=O)C3)CC1`, the cytotoxicity at 70.5 h was -14.5%.

In the case of `CC(C)NC(=O)N1CC[C@H]2N(C)CC[C@@]2(C(=O)Nc2cccnc2)CC1`, the cytotoxicity at 70.5 h was -10.8%.

As for `Cc1nc(CN2CCC3(C2)CN(C(=O)c2ccc[nH]2)C3)cs1`, the cytotoxicity at 70.5 h was -5.84%.

Take `O=C(NCC1CC1)c1cc2c(s1)CCN2c1ncccn1`: the cytotoxicity at 70.5 h was -0.353%.

Turning to `O=C(NCCN1CCCC1)c1cc2c(s1)CCN2c1ncccn1`, the cytotoxicity at 70.5 h is -5.02%.

Consider `CCOCC1CN(C(=O)c2cccs2)Cc2cnn(CC3CC3)c21` (centres undefined), for which the cytotoxicity at 70.5 h was -6.77%.

As to `COCCN1CCN(S(C)(=O)=O)Cc2cccnc21`, the cytotoxicity at 70.5 h was -5.85%.

For `O=C(C1CC(F)(F)C1)N1C[C@@H]2CN(CC3CC3)CCO[C@@H]2C1`, the cytotoxicity at 70.5 h amounted to 26%.

As to `CC(=O)N1CCO[C@@H]2CN(S(=O)(=O)c3cccnc3)C[C@@H]2C1`, the cytotoxicity at 70.5 h is 0.618%.

For the compound `CC(C)NC1CCc2[nH]c(=O)ccc2C1` (centres undefined), the cytotoxicity at 70.5 h was -3.78%.

`Cc1occc1C(=O)NCC1OCCc2cn(C)nc21` (centres undefined): the cytotoxicity at 70.5 h is -3.82%.

With `O=C(O)[C@]12CCCN(C3CCOC3)C[C@H]1CN(c1ncccn1)C2` (some centres undefined), the cytotoxicity at 70.5 h was -2.93%.

Regarding `Cn1nc(COCC2CC2)c2c1CCN(Cc1cccs1)C2`, the cytotoxicity at 70.5 h was -4.53%.

Regarding `O=C(c1ccccc1)N1CCCC2(CCN2Cc2cccc(F)c2)C1` (centres undefined), the cytotoxicity at 70.5 h was -9.02%.

`COc1cc(N2CCC3(CCN(Cc4nccs4)CC3)C2)ncn1`: the cytotoxicity at 70.5 h turned out to be 30.8%.

As to `COCCN1CCOCC12CCN(c1cnccn1)CC2`, the cytotoxicity at 70.5 h was -6.94%.

Take `CCN1CCOCC12CCN(c1cnccn1)CC2`: the cytotoxicity at 70.5 h was -7.58%.

With `Cc1noc(C)c1CN1CCOCC12CCN(c1cnccn1)CC2`, the cytotoxicity at 70.5 h was -6.5%.

For `Cc1noc(C)c1CN1CCOCC12CCN(c1nccs1)CC2`, the cytotoxicity at 70.5 h was -8.54%.

As to `CS(=O)(=O)N1CCc2ccc(=O)n(CCN3CCCC3)c2CC1`, the cytotoxicity at 70.5 h is -6.85%.

Turning to `CN(C)CCn1c2c(ccc1=O)CC(NC(=O)NC1CCCC1)CC2` (centres undefined), the cytotoxicity at 70.5 h is -6.88%.

In the case of `c1ccc(OCC2C[C@@H]3[C@@H](C2)OCCN3Cc2ccoc2)nc1` (some centres undefined), the cytotoxicity at 70.5 h is -0.172%.

As for `COCCN1CCO[C@@H]2CN(S(=O)(=O)c3cccnc3)C[C@@H]2C1`, the cytotoxicity at 70.5 h stood at 3.84%.

For `CC(C)N1CCC(N2CCC(C(=O)N(C)C)CC2)CC1`, the cytotoxicity at 70.5 h amounted to 1.65%.

Take `Cc1oncc1C(=O)N1CC[C@H]2[C@H](C[C@@H](CN3CCCC3)N2C)C1`: the cytotoxicity at 70.5 h was -2.32%.

For the compound `CNC(=O)[C@@H]1C[C@H]2CN(Cc3csc(C)n3)C[C@H]2N1C(C)C`, the cytotoxicity at 70.5 h is -4.84%.

As for `Cc1ncccc1NC(=O)[C@@H]1CCO[C@@H]2CCN(c3ccccc3)C[C@@H]21`, the cytotoxicity at 70.5 h was -3.01%.

In the case of `CCN1CCC(N2CCC(C(=O)N(C)C)CC2)CC1`, the cytotoxicity at 70.5 h is -5.59%.

With `Cc1noc(C)c1CN1C[C@H]2CN(Cc3cccc(F)c3)C[C@H]2C1`, the cytotoxicity at 70.5 h was -1.37%.

Turning to `COCCN1CCC2(CC1)CC(NCc1ccc(C)s1)c1ccccc12` (centres undefined), the cytotoxicity at 70.5 h came to 2.38%.

As to `Cc1noc(C)c1CN1CCO[C@H]2CN(Cc3cccc(F)c3)C[C@H]21`, the cytotoxicity at 70.5 h is -13.7%.

Turning to `CN(C)C(=O)COCC1CN(Cc2ccco2)Cc2ncn(C)c21` (centres undefined), the cytotoxicity at 70.5 h was -0.299%.

Consider `COCCN1Cc2nccn2CC(COCc2csc(C)n2)C1` (centres undefined), for which the cytotoxicity at 70.5 h was -1.7%.

For the origin of these results see ChEMBL document CHEMBL3507680, “University of Dundee, Gates Library screen for HepG2 cell viability”.
